Where a name gives a salt, the structure may show the parent alone. A value given as a limit tells only on which side of the number the result lay.

The target of the assay is T1, Syk tyrosine kinase (Homo sapiens, UniProt P43405).
T1 construct: purchased Carna Biosciences, Inc
In words: Test for Syk tyrosine kinase inhibitory activity (ELISA). The format is biochemical. As to conditions: Syk tyrosine kinase (Carna Biosciences), 25 μM ATP in substrate solution, 30° C. 1 hour, n=2; read-out: Evaluation (IC50, concentration inhibiting the tyrosine kinase activity at 50%). In a few lines:
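Syk kinase (0.025 nM stock before addition) with 625 nM biotinylated peptide and 25 μM ATP (substrate-solution levels) in Tris pH 7.5, MgCl2, DTT; 1 h at 30 °C on streptavidin plates. Phosphotyrosine detected by HRP anti-pTyr antibody, TMB, A450; IC50 by non-linear regression.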
(In general: An ELISA detects its analyte on a solid surface through an enzyme-linked reagent.)
Consider `N#Cc1ccnc(Nc2cc(C3CC3)cc(-c3cncc(OC4CCN(C(N)=O)CC4)c3)n2)c1` [Example 104, 4-({6-[(4-cyanopyridin-2-yl)amino]-4-cyclopropyl-2,3′-pypyridin-5′-yl}oxy)piperidine-1-carboxamide hydrochloride], for which the IC50 lay within 5 to 50 nM.

For `N#Cc1ccnc(Nc2cc(C3CC3)cc(-c3ccc4nc(CO)n([C@H]5CC[C@H](O)CC5)c4c3)n2)c1` [Example 162, 2-({4-cyclopropyl-6-[1-(trans-4-hydroxycyclohexyl)-2-(hydroxymethyl)-1H-benzimidazol-6-yl]pyridin-2-yl}amino)pyridine-4-carbonitrile hydrochloride], the IC50 is < 5 nM.

As to `N#Cc1ccnc(Nc2cc(C3CC3)cc(-c3cncc(NCCN)c3)n2)c1` [Example 90, 2-({5′-[(2-aminoethyl)amino]-4-cyclopropyl-2,3′-bipyridin-6-yl}amino)pyridine-4-carbonitrile hydrochloride], the IC50 is < 5 nM.

In the case of `N#Cc1ccnc(Nc2cc(C3CC3)cc(-c3ccc4c(c3)ncn4CCN)n2)c1` [Example 13, 2-({6-[1-(2-aminoethyl)-1H-benzimidazol-5-yl]-4-cyclopropylpyridin-2-yl}amino)pyridine-4-carbonitrile hydrochloride], the IC50 fell in the range of 5 to 50 nM.

For `CNC(=O)CCn1cnc2cc(-c3cc(C4CC4)cc(Nc4cc(C#N)ccn4)n3)ccc21` [Example 132, 3-(5-{6-[(4-cyanopyridin-2-yl)amino]-4-cyclopropylpyridin-2-yl}-1H-benzimidazol-1-yl)-N-methylpropanamide hydrochloride], the IC50 is 50 to 500 nM.

Consider `N#Cc1ccnc(Nc2cc(C3CC3)cc(-c3ccc(N4CC[C@@H](F)C4)nc3)n2)c1` [Example 51, 2-({4-cyclopropyl-6′-[(3R)-3-fluoropyrrolidin-1-yl]-2,3′-bipyridin-6-yl}amino)pyridine-4-carbonitrile hydrochloride], for which the IC50 fell in the range of 50 to 500 nM.

`CNC1CCN(c2ccc(-c3cc(C4CC4)cc(Nc4cc(C#N)ccn4)n3)cn2)CC1` [Example 29, 2-({4-cyclopropyl-6′-[4-(methylamino)piperidin-1-yl]-2,3′-bipyridin-6-yl}amino)pyridine-4-carbonitrile dihydrochloride]: the IC50 was 5 to 50 nM.

Consider `CCNC(=O)N1CCN(c2ccc(-c3cc(C4CC4)cc(Nc4cc(C#N)ccn4)n3)cn2)CC1` [Example 43, 4-{6-[(4-cyanopyridin-2-yl)amino]-4-cyclopropyl-2,3′-bipyridin-6′-yl}-N-ethylpiperazine-1-carboxamide hydrochloride], for which the IC50 was 50 to 500 nM.

For the compound `CN1CCC(Oc2cncc(-c3cc(C4CC4)cc(Nc4cc(C#N)ccn4)n3)c2)CC1` [Example 99, 2-({4-cyclopropyl-5′-[(1-methylpiperidin-4-yl)oxy]-2,3′-bipyridin-6-yl}amino)pyridine-4-carbonitrile hydrochloride], the IC50 is < 5 nM.

`CC(=O)N[C@@H]1CCN(c2ccc(-c3cc(C4CC4)cc(Nc4cc(C#N)ccn4)n3)cn2)C1` [Example 50, N-[(3R)-1-{6-[(4-cyanopyridin-2-yl)amino]-4-cyclopropyl-2,3′-bipyridin-6′-yl}pyrrolidin-3-yl]acetamide hydrochloride]: the IC50 was 50 to 500 nM.

For `N#Cc1ccnc(Nc2cc(C3CC3)cc(-c3ccc4ncn([C@@H]5CCCC[C@H]5O)c4c3)n2)c1` (relative stereo) [Example 146, 2-[(4-cyclopropyl-6-{1[trans-2-hydroxycyclohexyl]-1H-benzimidazol-6-yl}pyridin-2-yl)amino]pyridine-4-carbonitrile hydrochloride], the IC50 lay within 5 to 50 nM.

On to `N#Cc1ccnc(Nc2cc(C3CC3)cc(-c3ccc(N4CCC(NC(N)=O)CC4)nc3)n2)c1` [Example 64, 1-(1-{6-[(4-cyanopyridin-2-yl)amino]-4-cyclopropyl-2,3′-bipyridin-6′-yl}piperidin-4-yl)urea hydrochloride], for which the IC50 is 5 to 50 nM.

In the case of `N#Cc1ccnc(Nc2cc(C3CC3)cc(-c3ccc(N4CCC(C(N)=O)CC4)nc3)n2)c1` [Example 61, 1-{6-[(4-cyanopyridin-2-yl)amino]-4-cyclopropyl-2,3′-bipyridin-6′-yl}piperidine-4-carboxamide hydrochloride], the IC50 lay in the range of 50 to 500 nM.

For the compound `N#Cc1ccnc(Nc2cc(C3CC3)cc(-c3ccnc(N4CCCN(C(N)=O)CC4)c3)n2)c1` [Example 76, 4-{6-[(4-cyanopyridin-2-yl)amino]-4-cyclopropyl-2,4′-bipyridin-2′-yl}-1,4-diazepane-1-carboxamide hydrochloride], the IC50 was 5 to 50 nM.

For `N#Cc1ccnc(Nc2cc(C3CC3)cc(-c3ccc4c(c3)ncn4C(CO)CO)n2)c1` [Example 117, 2-({4-cyclopropy-6-[1-(1,3-dihydroxypropan-2-yl)-1H-benzimidazol-5-yl)]pyridin-2-yl}amino)pyridine-4-carbonitrile hydrochloride], the IC50 fell in the range of 5 to 50 nM.

For `N#Cc1ccnc(Nc2cc(C3CC3)cc(-c3ccc(CN4CCS(=O)(=O)CC4)nc3)n2)c1` [Example 72, 2-({4-cyclopropyl-6′-[(1,1-dioxidethiomorpholin-4-yl)methyl]-2,3′-bipyridin-6-yl}amino)pyridine-4-carbonitrile hydrochloride], the IC50 was 5 to 50 nM.

Take `N#Cc1ccnc(Nc2cc(C3CC3)cc(-c3ccc4ncn(CCCCO)c4c3)n2)c1` [Example 127, 2-({4-cyclopropyl-6-[1-(4-hydroxybutyl)-1H-benzimidaxol-6-yl]pyridin-2-yl}amino)pyridine-4-carbonitrile hydrochloride]: the IC50 lay within 5 to 50 nM.

For the compound `N#Cc1ccnc(Nc2cc(C3CC3)cc(-c3cncc(N4CCNC(=O)C4)c3)n2)c1` [Example 115, 2-{[4-cyclopropyl-5′-(3-oxopiperazin-1-yl)-2,3′-bipyridin-6-yl]amino}pyridine-4-carbonitrile], the IC50 is < 5 nM.

As to `N#Cc1ccnc(Nc2cc(C3CC3)cc(-c3ccc4c(c3)ncn4C3CCOCC3)n2)c1` [Example 16, 2-({4-cyclopropyl-6-[1-tetrahydro-2H-pyran-4-yl)-1H-benzimidazol-5-yl]pyridin-2-yl}amino)pyridine-4-carbonitrile hydrochloride], the IC50 is 5 to 50 nM.

`N#Cc1ccnc(Nc2cc(C3CC3)cc(-c3ccc4c(c3)ncn4[C@@H]3CCCC[C@H]3O)n2)c1` (relative stereo) [Example 152, 2-[(4-cyclopropyl-6-{1-[trans-2-hydroxycyclohexyl]-1H-benzimidazol-5-yl}pyridin-2-yl)amino]pyridine-4-carbonitrile hydrochloride]: the IC50 lay within 50 to 500 nM.

On to `N#Cc1ccnc(Nc2cc(C3CC3)cc(-c3ccc(N4C[C@@H](O)CC4=O)nc3)n2)c1` [Example 11, 2-({4-cyclopropyl-6′-[(4S)-4-hydroxy-2-oxopyrrolidin-1-yl]-2,3′-bipyridin-6-yl}amino)pyridine-4-carbonitrile hydrochloride], for which the IC50 was 50 to 500 nM.

For the compound `N#Cc1ccnc(Nc2cc(C3CC3)cc(-c3ccc(N4CCC(=O)CC4)nc3)n2)c1` [Example 4, 2-{[4-cyclopropyl-6′-(4-oxopiperidin-1-yl)-2,3′-bipyridin-6-yl]amino}pyridine-4-carbonitrile hydrochloride], the IC50 was in the range of 5 to 50 nM.

Regarding `N#Cc1ccnc(Nc2cc(C3CC3)cc(-c3cncc(N4CCC(O)CC4)c3)n2)c1` [Example 116, 2-{[4-cyclopropyl-5′-(4-hydroxypiperidin-1-yl)-2,3′-bipyridin-6-yl]amino}pyridine-4-carbontrile hydrochloride], the IC50 was 5 to 50 nM.

(Values after patent publication US20130225548A1, “Pyridine Derivative and Medicinal Agent” (NIPPON SHINYAKU CO., LTD., priority 2010, published 2013).)
